This is an account of results in patent US7626031B2, “Substituted 3-(diarylmethylene)indolin-2-ones and methods of their use” (Symphony Evolution, Inc., priority 2002, dated 2009).

Experiment [1] has as its target T1, KDR (baculovirus expressed human KDR kinase domain D807-V1356) (Homo sapiens, UniProt P35968).
T1 construct: human KDR kinase domain D807-V1356; host or cells: baculovirus expression system
Put plainly: biochemical. The method, then: (§1) Kinase activity and compound inhibition are investigated using one or more assay formats. The ATP concentrations for each assay are selected to be close to the Michaelis-Menten constant (KM) for each individual kinase. Dose-response experiments are performed at 10 different inhibitor concentrations in a 384-well plate format. […] Exemplary kinase assays are described below. KDR Assay
KDR biochemical activity was assessed using a Luciferase-Coupled Chemiluminescent Kinase assay (LCCA) format. Kinase activity was measured as the percent ATP remaining following the kinase reaction. Remaining ATP was detected by luciferase-luciferin-coupled chemiluminescence. […] The mixture is incubated at ambient temperature for 4 hours after which 20 uL luciferase-luciferin mix is added and the chemiluminescent signal read using a Wallac Victor^2 reader.

The next experiment deals with EphA2 (Homo sapiens, UniProt P29317). Put plainly: Kinase assay, EphA2 (33P-ATP incorporation or luciferase-coupled ATP consumption). The experiment is classed as biochemical. Here is the method:
(§2) Kinase assays were performed by measurement of incorporation of γ-^33P ATP into immobilized myelin basic protein (MBP). […] Plates were washed 3× with 100 μl TBS. […] Compound dilutions were performed in DMSO and added to assay wells to a final DMSO concentration of 1%. Each data point was measured in duplicate, and at least two duplicate assays were performed for each individual compound determination. Enzyme was added to final concentrations of 10 nM or 20 nM, for example. A mixture of unlabeled ATP and γ-^33P ATP was added to start the reaction (2×10^6 cpm of γ-^33P ATP per well (3000 Ci/mmole) and either 10 μM or 30 μM unlabeled ATP, typically. The reactions were carried out for 1 hour at room temperature with shaking. Plates were washed 7× with TBS, followed by the addition of 50 μl/well scintillation fluid (Wallac). Plates were read using a Wallac Trilux counter. This is only one format of such assays, various other formats are possible, as known to one of ordinary skill in the art.
(§3) Tyrosine kinase activity is determined by 1) measurement of kinase-dependent ATP consumption by in the presence of a generic substrate such as, polyglutamic acid, tyrosine, 4:1 (pEY), by luciferase/luciferin-mediated chemiluminescence or; 2) incorporation of radioactive phosphate derived from ^33P-ATP into a generic substrate which has been adsorbed onto the well surface of polystyrene microtiter plates. Phosphorylated substrate products are quantified by scintillation spectrometry.
as §1

Another experiment has as its target Flt-1 (Homo sapiens, UniProt P17948). Description: Kinase assay, Flt-1 (33P-ATP incorporation or luciferase-coupled ATP consumption). The experiment is classed as biochemical. Particulars: read-out: Flt1 IC50. The method, then:
as §2, §3, §1

Another experiment addresses EGFR (Homo sapiens, UniProt P00533). Put plainly: Kinase assay, EGFR (33P-ATP incorporation or luciferase-coupled ATP consumption). It counts as biochemical. Here is the method:
as §2, §3, §1

The target in the next experiment is PDGFR alpha (Homo sapiens, UniProt P16234). Description: Kinase assay, PDGFR alpha (33P-ATP incorporation or luciferase-coupled ATP consumption). It counts as biochemical. As to conditions: read-out: PDGF-R-A IC50. Here is the method: as §2, §3, §1
Sequence of PDGFR alpha (P16234 24-1089): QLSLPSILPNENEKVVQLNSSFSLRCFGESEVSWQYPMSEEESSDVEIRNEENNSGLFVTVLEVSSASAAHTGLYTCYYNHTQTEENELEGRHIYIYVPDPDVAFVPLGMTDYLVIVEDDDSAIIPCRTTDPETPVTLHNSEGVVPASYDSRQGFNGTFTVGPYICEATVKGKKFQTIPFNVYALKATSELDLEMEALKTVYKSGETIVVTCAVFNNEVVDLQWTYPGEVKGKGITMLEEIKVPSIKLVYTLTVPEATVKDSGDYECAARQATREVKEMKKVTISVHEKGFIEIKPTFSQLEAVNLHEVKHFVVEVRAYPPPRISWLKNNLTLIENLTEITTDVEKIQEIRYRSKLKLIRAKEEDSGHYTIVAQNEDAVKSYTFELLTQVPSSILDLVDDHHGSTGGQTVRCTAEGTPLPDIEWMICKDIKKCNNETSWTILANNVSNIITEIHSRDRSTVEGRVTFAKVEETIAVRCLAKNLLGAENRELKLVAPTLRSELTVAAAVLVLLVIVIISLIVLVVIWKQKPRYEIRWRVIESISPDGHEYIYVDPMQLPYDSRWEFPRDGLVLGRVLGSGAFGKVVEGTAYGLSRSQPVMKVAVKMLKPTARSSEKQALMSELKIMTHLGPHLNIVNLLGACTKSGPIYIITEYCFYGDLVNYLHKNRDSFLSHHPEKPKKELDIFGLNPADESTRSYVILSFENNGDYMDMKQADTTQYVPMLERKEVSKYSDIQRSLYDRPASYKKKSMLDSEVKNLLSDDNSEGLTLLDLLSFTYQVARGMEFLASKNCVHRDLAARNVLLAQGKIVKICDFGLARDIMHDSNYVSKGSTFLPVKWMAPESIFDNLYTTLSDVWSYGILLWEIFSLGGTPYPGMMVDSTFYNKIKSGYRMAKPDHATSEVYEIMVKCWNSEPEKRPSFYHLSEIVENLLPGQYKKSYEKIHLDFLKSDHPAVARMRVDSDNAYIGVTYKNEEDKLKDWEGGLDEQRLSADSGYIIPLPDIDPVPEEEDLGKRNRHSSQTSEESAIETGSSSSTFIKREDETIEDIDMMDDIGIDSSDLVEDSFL
The target in the next experiment is Fyn (Homo sapiens, UniProt P06241). Description: Kinase assay, Fyn. The experiment is classed as biochemical. Here is the method: as §1
For a further experiment, the target named is IRK (Homo sapiens, UniProt P06213). Put plainly: Kinase assay, IRK. The experiment is classed as biochemical. The method, then: as §1
Sequence of IRK (P06213 28-1382): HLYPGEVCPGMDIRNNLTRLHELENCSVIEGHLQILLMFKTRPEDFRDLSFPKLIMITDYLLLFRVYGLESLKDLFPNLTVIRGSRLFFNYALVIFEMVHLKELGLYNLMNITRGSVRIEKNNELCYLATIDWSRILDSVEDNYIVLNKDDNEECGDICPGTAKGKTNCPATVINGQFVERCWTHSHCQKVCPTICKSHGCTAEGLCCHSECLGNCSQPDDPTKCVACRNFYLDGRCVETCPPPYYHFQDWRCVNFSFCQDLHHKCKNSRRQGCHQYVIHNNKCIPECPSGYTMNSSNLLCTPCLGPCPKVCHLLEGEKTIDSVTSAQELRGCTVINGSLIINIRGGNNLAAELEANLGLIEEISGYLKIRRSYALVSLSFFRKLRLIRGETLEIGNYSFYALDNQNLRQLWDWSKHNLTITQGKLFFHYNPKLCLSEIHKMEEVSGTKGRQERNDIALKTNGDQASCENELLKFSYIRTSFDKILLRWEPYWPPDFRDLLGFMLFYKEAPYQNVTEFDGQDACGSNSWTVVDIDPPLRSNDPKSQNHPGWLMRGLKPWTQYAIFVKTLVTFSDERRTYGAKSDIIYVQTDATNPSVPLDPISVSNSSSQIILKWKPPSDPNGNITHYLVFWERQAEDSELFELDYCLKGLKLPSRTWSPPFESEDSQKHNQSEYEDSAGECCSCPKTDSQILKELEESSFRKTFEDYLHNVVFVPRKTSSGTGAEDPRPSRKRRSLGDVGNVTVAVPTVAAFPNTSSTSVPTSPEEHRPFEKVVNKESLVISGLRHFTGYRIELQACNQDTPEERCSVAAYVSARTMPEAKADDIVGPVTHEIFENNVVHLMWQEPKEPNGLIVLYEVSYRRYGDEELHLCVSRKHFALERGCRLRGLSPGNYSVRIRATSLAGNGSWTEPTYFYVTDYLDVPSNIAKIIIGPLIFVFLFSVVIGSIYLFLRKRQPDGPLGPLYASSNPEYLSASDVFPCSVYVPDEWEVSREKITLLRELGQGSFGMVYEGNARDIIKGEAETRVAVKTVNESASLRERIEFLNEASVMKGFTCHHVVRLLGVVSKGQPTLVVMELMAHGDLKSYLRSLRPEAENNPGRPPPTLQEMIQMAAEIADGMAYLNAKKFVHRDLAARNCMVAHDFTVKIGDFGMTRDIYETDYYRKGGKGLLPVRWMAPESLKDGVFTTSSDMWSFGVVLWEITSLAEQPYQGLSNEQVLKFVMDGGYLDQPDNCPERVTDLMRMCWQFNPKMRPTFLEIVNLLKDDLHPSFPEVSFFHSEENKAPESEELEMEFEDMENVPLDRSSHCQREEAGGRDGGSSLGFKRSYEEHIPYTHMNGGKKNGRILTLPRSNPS
The target in the next experiment is FGFR1 (Homo sapiens, UniProt P11362). Description: Kinase assay, FGFR1 (33P-ATP incorporation or luciferase-coupled ATP consumption). It counts as biochemical. The method, then:
as §2, §3, §1

Some results are limits rather than exact numbers.

Sequence of EphA2 (P29317 24-976, species assumed): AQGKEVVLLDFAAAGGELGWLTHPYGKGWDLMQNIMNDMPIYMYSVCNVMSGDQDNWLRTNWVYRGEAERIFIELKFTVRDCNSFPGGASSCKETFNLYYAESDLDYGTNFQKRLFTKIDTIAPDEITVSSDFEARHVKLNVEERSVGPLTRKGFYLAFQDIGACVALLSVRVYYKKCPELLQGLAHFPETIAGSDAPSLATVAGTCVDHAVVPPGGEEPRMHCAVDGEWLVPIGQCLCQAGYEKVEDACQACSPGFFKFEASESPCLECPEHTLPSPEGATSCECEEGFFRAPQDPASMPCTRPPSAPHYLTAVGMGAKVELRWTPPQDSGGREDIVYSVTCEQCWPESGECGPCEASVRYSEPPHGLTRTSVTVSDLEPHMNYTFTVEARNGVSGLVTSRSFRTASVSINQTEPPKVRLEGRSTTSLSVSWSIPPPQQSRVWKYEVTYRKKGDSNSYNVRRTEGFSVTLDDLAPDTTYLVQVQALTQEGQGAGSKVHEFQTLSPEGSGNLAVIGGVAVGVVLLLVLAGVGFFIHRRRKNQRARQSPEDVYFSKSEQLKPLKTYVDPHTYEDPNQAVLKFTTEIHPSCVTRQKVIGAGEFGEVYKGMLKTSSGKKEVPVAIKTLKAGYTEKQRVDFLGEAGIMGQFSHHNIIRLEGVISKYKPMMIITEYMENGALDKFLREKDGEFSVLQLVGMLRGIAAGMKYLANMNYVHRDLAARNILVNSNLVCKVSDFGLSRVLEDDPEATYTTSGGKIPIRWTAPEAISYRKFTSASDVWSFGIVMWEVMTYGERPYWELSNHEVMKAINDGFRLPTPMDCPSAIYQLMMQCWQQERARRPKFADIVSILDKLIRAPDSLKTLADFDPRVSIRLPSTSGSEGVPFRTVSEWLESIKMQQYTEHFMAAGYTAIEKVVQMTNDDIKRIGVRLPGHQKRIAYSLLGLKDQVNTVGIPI
T1 sequence (P35968 807-1356): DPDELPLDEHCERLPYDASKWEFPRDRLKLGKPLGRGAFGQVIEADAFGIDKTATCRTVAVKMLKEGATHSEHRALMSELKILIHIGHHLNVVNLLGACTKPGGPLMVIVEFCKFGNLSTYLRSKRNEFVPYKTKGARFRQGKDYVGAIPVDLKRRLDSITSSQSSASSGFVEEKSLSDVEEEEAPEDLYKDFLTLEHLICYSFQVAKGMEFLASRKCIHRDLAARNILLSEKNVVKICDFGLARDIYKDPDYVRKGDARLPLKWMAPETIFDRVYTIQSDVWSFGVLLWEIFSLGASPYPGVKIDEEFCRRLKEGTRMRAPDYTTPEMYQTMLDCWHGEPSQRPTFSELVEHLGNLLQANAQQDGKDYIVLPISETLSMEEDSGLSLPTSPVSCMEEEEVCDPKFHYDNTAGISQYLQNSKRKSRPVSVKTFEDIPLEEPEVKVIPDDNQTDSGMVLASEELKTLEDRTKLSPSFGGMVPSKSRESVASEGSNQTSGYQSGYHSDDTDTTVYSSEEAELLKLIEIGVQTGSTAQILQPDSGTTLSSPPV
Sequence of EGFR (P00533 25-1210, species assumed): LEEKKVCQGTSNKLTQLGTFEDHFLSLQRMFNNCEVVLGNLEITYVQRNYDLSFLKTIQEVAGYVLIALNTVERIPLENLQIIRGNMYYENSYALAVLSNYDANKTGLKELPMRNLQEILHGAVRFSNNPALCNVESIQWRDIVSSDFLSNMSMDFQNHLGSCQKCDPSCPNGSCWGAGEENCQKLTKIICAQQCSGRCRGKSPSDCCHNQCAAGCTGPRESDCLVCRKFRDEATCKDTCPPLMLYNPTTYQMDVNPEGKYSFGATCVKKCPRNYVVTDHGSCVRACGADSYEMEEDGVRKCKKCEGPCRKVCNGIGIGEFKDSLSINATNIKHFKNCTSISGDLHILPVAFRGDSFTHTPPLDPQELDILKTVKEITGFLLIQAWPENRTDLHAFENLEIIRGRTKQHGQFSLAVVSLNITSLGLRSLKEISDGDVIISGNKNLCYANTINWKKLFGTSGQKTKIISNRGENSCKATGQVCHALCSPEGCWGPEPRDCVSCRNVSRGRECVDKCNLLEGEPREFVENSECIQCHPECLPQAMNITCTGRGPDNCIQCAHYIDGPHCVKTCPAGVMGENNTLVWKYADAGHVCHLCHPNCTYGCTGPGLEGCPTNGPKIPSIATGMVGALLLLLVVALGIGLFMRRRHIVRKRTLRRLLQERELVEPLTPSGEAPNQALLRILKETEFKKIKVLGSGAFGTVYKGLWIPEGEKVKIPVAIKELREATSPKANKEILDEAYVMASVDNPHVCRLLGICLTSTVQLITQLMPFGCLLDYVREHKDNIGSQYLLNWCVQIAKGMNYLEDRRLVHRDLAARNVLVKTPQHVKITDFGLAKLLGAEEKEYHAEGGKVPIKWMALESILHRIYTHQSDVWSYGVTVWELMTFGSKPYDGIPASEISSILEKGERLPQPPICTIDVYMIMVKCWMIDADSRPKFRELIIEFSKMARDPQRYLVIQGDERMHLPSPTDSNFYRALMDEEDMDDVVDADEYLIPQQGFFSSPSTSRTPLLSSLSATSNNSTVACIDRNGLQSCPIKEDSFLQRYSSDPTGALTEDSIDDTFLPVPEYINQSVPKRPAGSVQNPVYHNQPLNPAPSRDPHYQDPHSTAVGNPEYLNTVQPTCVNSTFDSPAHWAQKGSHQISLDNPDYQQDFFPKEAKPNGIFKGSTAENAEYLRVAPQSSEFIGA

Regarding `CCN1CCC(Nc2ccc3c(c2)/C(=C(\c2ccc(OC)cc2)c2ncc[nH]2)C(=O)N3)CC1` [Entry 15, (3Z)-5-[(1-ethylpiperidin-4-yl)amino]-3-{1H-imidazol-2-yl[4-(methyloxy)phenyl]methylidene}-1,3-dihydro-2H-indol-2-one], the IC50 is less than 50 nM in experiment [1]; 500 to 5000 nM on EphA2; 50 to 500 nM at Flt-1; 500 to 5000 nM against EGFR; less than 50 nM on PDGFR alpha; less than 50 nM against Fyn. The same compound showed an IC50 at IRK of 500 to 5000 nM.

Regarding `CC1(C)CC(Nc2ccc3c(c2)/C(=C(\c2ccccc2)c2nc4ccccc4[nH]2)C(=O)N3)CC(C)(C)N1` [Entry 25, (3Z)-3-[1H-benzimidazol-2-yl(phenyl)methylidene]-5-[(2,2,6,6-tetramethylpiperidin-4-yl)amino]-1,3-dihydro-2H-indol-2-one], the 50% inhibitory concentration (IC50) lay in the range of 50 to 500 nM in experiment [1]; 500 to 5000 nM against EphA2; 500 to 5000 nM at Flt-1; 500 to 5000 nM at EGFR; 50 to 500 nM on PDGFR alpha; 500 to 5000 nM at Fyn. For the same compound, the IC50 at IRK is 500 to 5000 nM.

In the case of `CCN1CCC(Nc2ccc3c(c2)/C(=C(\c2ccc(F)cc2)c2nc4ccccc4[nH]2)C(=O)N3)CC1` [Entry 16, (3Z)-3-[1H-benzimidazol-2-yl(4-fluorophenyl)methylidene]-5[(1-ethylpiperidin-4-yl)amino]-1,3-dihydro-2H-indol-2-one], the IC50 was less than 50 nM in experiment [1]; 500 to 5000 nM against EphA2; 50 to 500 nM on Flt-1; 500 to 5000 nM against EGFR; less than 50 nM at PDGFR alpha; 50 to 500 nM on Fyn. Also, on IRK, the IC50 lay within 500 to 5000 nM.

Turning to `CCN1CCC(Nc2ccc3c(c2)/C(=C(\c2cccc(C(=N)N)c2)c2nc4ccccc4[nH]2)C(=O)N3)CC1` [Entry 23, 3-((Z)-1H-benzimidazol-2-yl{5-[(1-ethylpiperidin-4-yl)amino]-2-oxo-1,2-dihydro-3H-indol-3-ylidene}methyl) benzenecarboximidamide], the IC50 (in experiment [1]; on EphA2; at Flt-1; against EGFR; on PDGFR alpha; at Fyn) was 500 to 5000 nM each time. At IRK, this compound had an IC50 of 500 to 5000 nM.

Consider `O=C1Nc2ccc(NC3CCNCC3)cc2/C1=C(\c1ccccc1)c1nc2ccccc2[nH]1` [Entry 22, (3Z)-3-[1H-benzimidazol-2-yl(phenyl)methylidene] -5-(piperidin-4-ylamino)-1,3-dihydro-2H-indol-2-one], for which the IC50 in experiment [1] was less than 50 nM; at EphA2, 50 to 500 nM; at Flt-1, 50 to 500 nM; against EGFR, 500 to 5000 nM; on PDGFR alpha, less than 50 nM; at Fyn, less than 50 nM. Also, the half-inhibitory concentration (IC50) on IRK lay in the range of 50 to 500 nM.

Turning to `CS(=O)(=O)N1CCC(Nc2ccc3c(c2)/C(=C(\c2ccccc2)c2nc4ccccc4[nH]2)C(=O)N3)CC1` [Entry 30, (3Z)-3-[1H-benzimidazol-2-yl(phenyl)methylidene]-5-{[1-(methylsulfonyl)piperidin-4-yl]amino}-1,3-dihydro-2H-indol-2-one], the IC50 in experiment [1] is 50 to 500 nM; against EphA2, 500 to 5000 nM; at Flt-1, 500 to 5000 nM; on EGFR, 500 to 5000 nM; on PDGFR alpha, 500 to 5000 nM; on Fyn, 500 to 5000 nM. At IRK, this compound registered an IC50 of 500 to 5000 nM.

As for `O=C1Nc2ccc(OC3CCN(Cc4ccccc4)CC3)cc2/C1=C(\c1ccccc1)c1nc2ccccc2[nH]1` [Entry 34, (3Z)-3-[1H-benzimidazol-2-yl(phenyl)methylidene]-5-{(1-(phenylmethyl)piperidin-4-yl]oxy}-1,3-dihydro-2H-indol-2-one], the IC50 in experiment [1] was less than 50 nM; on EphA2, 500 to 5000 nM; at Flt-1 it was 500 to 5000 nM; against EGFR, 500 to 5000 nM; at PDGFR alpha it was less than 50 nM; against Fyn it was less than 50 nM. Moreover, on IRK, the half-maximal inhibitory concentration (IC50) fell in the range of 500 to 5000 nM.

As to `CCN1CCC(Nc2ccc3c(c2)/C(=C(\c2cccc(C#N)c2)c2nc4ccccc4[nH]2)C(=O)N3)CC1` [Entry 20, 3-((Z)-1H-benzimidazol-2-yl{5-[(1-ethylpiperidin-4-yl)amino]-2-oxo-1,2-dihydro-3H-indol-3-ylidene)methyl) benzonitrile], the half-inhibitory concentration (IC50) in experiment [1] is less than 50 nM; on EphA2 it was 500 to 5000 nM; at Flt-1 it was 500 to 5000 nM; on EGFR, 500 to 5000 nM; at PDGFR alpha, 50 to 500 nM; on Fyn, 50 to 500 nM. Also, at IRK, the half-inhibitory concentration (IC50) fell in the range of 500 to 5000 nM.

In the case of `O=C1Nc2ccc(NC3CCN(CCN4CCCC4)CC3)cc2/C1=C(\c1cccc(F)c1)c1ncc[nH]1` [Entry 85, (3Z)-3-[(3-fluorophenyl)(1H-imidazol-2-yl)methylidene]-5-{[1-(2-pyrrolidin-1-ylethyl)piperidin-4-yl]amino}-1,3-dihydro-2H-indol-2-one], the half-inhibitory concentration (IC50) in experiment [1] is less than 50 nM; on EphA2, 500 to 5000 nM; against EGFR, more than 5000 nM; at FGFR1 it was 50 to 500 nM; at PDGFR alpha, less than 50 nM; at Fyn, 50 to 500 nM. The half-inhibitory concentration (IC50) against IRK was more than 5000 nM.

For `COCCN1CCC(Nc2ccc3c(c2)/C(=C(\c2cccc(F)c2)c2ncn[nH]2)C(=O)N3)CC1` [Entry 87], the IC50 in experiment [1] was 50 to 500 nM; against EphA2 it was more than 5000 nM; on EGFR, more than 5000 nM; at FGFR1, 50 to 500 nM; at PDGFR alpha, 50 to 500 nM; at Fyn, more than 5000 nM. Also, the concentration for half-maximal inhibition (IC50) against IRK was more than 5000 nM.

`CCN1CCC(Nc2ccc3c(c2)/C(=C(\c2ccc(C(F)(F)F)nc2)c2ncc[nH]2)C(=O)N3)CC1` [Entry 68]: the IC50 is 50 to 500 nM in experiment [1]; 500 to 5000 nM against EphA2; more than 5000 nM at EGFR; 50 to 500 nM against FGFR1; less than 50 nM at PDGFR alpha; 50 to 500 nM on Fyn. This compound also showed an IC50 on IRK of more than 5000 nM.

`COCCN1CCC(Nc2ccc3c(c2)/C(=C(\c2cccc(F)c2)c2nc(C)c[nH]2)C(=O)N3)CC1` [Entry 70, (3Z)-3-[(3-fluorophenyl)(4-methyl-1H-imidazol-2-yl)methylidene]-5-({1-[2-(methyloxy)ethyl]piperidin-4-yl}amino)-1,3-dihydro-2H-indol-2-one]: the IC50 was less than 50 nM in experiment [1]; 50 to 500 nM against EphA2; 50 to 500 nM against EGFR; less than 50 nM on FGFR1; less than 50 nM on PDGFR alpha; less than 50 nM against Fyn. This compound also came in with a 50% inhibitory concentration (IC50) on IRK of 500 to 5000 nM.

Turning to `CCCc1ccc(/C(=C2/C(=O)Nc3ccc(NC4CCN(CC)CC4)cc32)c2ncc[nH]2)cc1` [Entry 59, (3Z)-5-[(1-ethylpiperidin-4-yl)amino]-3-[1H-imidazol-2-yl(4-propylphenyl)methylidene]-1,3-dihydro-2H-indol-2-one], the IC50 in experiment [1] was less than 50 nM; on EphA2 it was 500 to 5000 nM; on EGFR, 50 to 500 nM; against FGFR1, less than 50 nM; at PDGFR alpha, less than 50 nM; against Fyn, less than 50 nM. The same compound gave an IC50 against IRK of 500 to 5000 nM.

Take `COCCN1CCC(Nc2ccc3c(c2)/C(=C(\c2ccc(C(F)(F)F)c(F)c2)c2ncc[nH]2)C(=O)N3)CC1` [Entry 92]: the IC50 is less than 50 nM in experiment [1]; 500 to 5000 nM against EphA2; more than 5000 nM at EGFR; 50 to 500 nM against FGFR1; less than 50 nM on PDGFR alpha; 50 to 500 nM against Fyn. Also, the half-inhibitory concentration (IC50) against IRK was more than 5000 nM.

As to `COCCN1CCC(Nc2ccc3c(c2)/C(=C(\c2ccc(F)cc2)c2ncc[nH]2)C(=O)N3)CC1` [Entry 78], the IC50 in experiment [1] was less than 50 nM; on EphA2 it was 500 to 5000 nM; at EGFR, more than 5000 nM; on FGFR1 it was 50 to 500 nM; on PDGFR alpha, less than 50 nM; against Fyn, 50 to 500 nM. The compound further returned an IC50 on IRK of more than 5000 nM.
